Patent US20250099427A1, “Drug and Method of Treating or Preventing Renal Disease Using Drug” (Showa University, priority 2018, published 2025)

Key:
[1] = test system: Acute Renal Failure Animal Model; assay: Acute renal failure animal model, pathological tissue specimen (HE staining) lesion scores; assay type: in vivo, mouse; conditions: 10 mg/kg
Experimental: 24 hours after the ischemia and reperfusion processes, urine was collected for 24 hours using a metabolic cage, measurement of body weight was conducted, and blood was collected. Thereafter, nephrectomy was conducted, and formalin-fixed kidney was permeated with paraffin using an automatic embedding device to produce a paraffin block. The paraffin block was sliced into 3 μm sections with a microtome, and placed on a slide glass. Then, the sections were stretched with a paraffin stretcher at 52° C., and sufficiently dried overnight in a paraffin melter at 37° C. After deparaffinization and washing with water, the sections were stained with a Mayer's hematoxylin staining solution for 1 minute and washed with running water for 15 minutes. Thereafter, the sections were stained with an eosin staining solution for 45 seconds, and dehydrated with 80% to 100% ethanol, followed by clearing with xylene and sealing with marinol. Each specimen was examined microscopically at a magnification of 50 using an optical microscope. With respect to tubular dilatation, tubular necrosis, and tubular casts in the cortex, outer zone of outer medulla, and inner zone of outer medulla, the percentage of lesions in each site was evaluated according to the following criteria.
In Table 12, the experimental results are expressed in mean±standard error in eight mice in each group. For comparison among multiple groups, firstly, one-way analysis of variance (ANOVA) was conducted, and then a Bonferroni test was conducted, if significant difference was recognized. Significant difference was recognized with a significance level of less than 5% (P<0.05).

[2] = test system: Acute Renal Disease (Cisplatin Nephropathy) Animal Model; assay: Test using acute renal disease (cisplatin nephropathy) animal model, BUN and sCr; assay type: in vivo, mouse; conditions: mean±SE
Experimental: A male ddY strain mouse (30 to 40 g) was used as an experimental animal. Under anesthesia with isoflurane, cisplatin (20 mg/kg) was injected into the femoral vein at a constant rate over 15 minutes to induce nephropathy. 3 days later, blood was collected from the descending vena cava, and after separating serum, blood urea nitrogen (BUN) and serum creatinine (sCr) were measured to evaluate renal function. Further, the kidney was isolated after perfusion, RNA was extracted, reverse transcription was conducted, real-time RT-PCR was conducted using the produced cDNA as a template, and the effect on TNF-α mRNA expression in renal tissues was also studied. A group to which physiological saline was administered instead of cisplatin was designated as the sham group.
In order to study the timing of administration, a drug (10 mg/kg) was injected into the femoral vein at a constant rate simultaneously with cisplatin, or 1 or 2 days later. In order to study dose relationship, a drug (0.1 mg/kg, 1 mg/kg, or 10 mg/kg) was injected to the femoral vein at a constant rate.
Further, in order to study the effect on TNF-α mRNA expression and histopathological study, a drug (10 mg/kg) was similarly administered 1 day after administration of cisplatin.
The collected blood was centrifuged at 3000 rpm for 15 minutes, serum was separated, and BUN and sCr were measured. In the measurement, BUN was measured using Urea B-test Wako (manufactured by Wako Pure Chemical Industries, Ltd.) and a QuantiChrom Urea Assay Kit (manufactured by Funakoshi Co., Ltd.), and sCr was measured using Lab Assay Creatinine (manufactured by Wako Pure Chemical Industries, Ltd.).
In Tables 13 to 15, the experimental results are expressed in mean±standard error. The RT-PCR results were corrected with the amount of β-Actin as an endogenous control gene. With reference to statistically significant difference, an unpaired test between two groups (Student's t-test) was conducted for comparison between two groups, and one-way analysis of variance was conducted and then a Dunnett test was conducted for comparison among multiple groups. Further, in the histopathological study, a Mann-Whitney U test was conducted, and in all cases, a significance level of 5% or less (P<0.05) was regarded as significant difference.

[3] = points 0 (no lesion) to 4 (severe, 50% or more), mean±SE, 8 mice
[4] = Administration one day later (1 day): 10 mg/kg femoral vein after cisplatin 20 mg/kg, timing study Table 13
[5] = Administration two days later (2 day): 10 mg/kg femoral vein after cisplatin 20 mg/kg
[6] = Coadministration: 10 mg/kg femoral vein simultaneously with cisplatin 20 mg/kg, blood 3 days after cisplatin
[7] = TNF-α study Table 15: 10 mg/kg 1 day after cisplatin
[8] = dose relationship study Table 14: 0.1 mg/kg femoral vein 1 day after cisplatin, 0.1 mg/kg
[9] = dose relationship study Table 14: 1 mg/kg femoral vein 1 day after cisplatin, 1 mg/kg
[10] = dose relationship study Table 14: 1 mg/kg femoral vein 1 day after cisplatin, listed as SMPT-7, 1 mg/kg
[11] = dose relationship study Table 14: 10 mg/kg femoral vein 1 day after cisplatin, 10 mg/kg
[12] = dose relationship study Table 14: 10 mg/kg femoral vein 1 day after cisplatin, listed as SMPT-7, 10 mg/kg

SMILES: CC(C)=CCC/C(C)=C/CC[C@@]1(C)Oc2c(c(O)cc3c2CN(CCC[C@@H](C(=O)O)N2Cc4c(cc(O)c5c4O[C@](C)(CC/C=C(\C)CCC=C(C)C)[C@@H](O)C5)C2=O)C3=O)C[C@@H]1O [SMTP-7]
- Histopathological changes (lesion changes), result in words ([1]; compared to control group): lesion changes other than the lesion change in tubular casts in the renal cortex were significantly improved
- Tubular cast score, Cortex [1, 3]: 0.9 ± 0.1
- Tubular cast score, Inner zone of outer medulla [1, 3]: 1.0 ± 0.2
- Tubular cast score, Outer zone of outer medulla [1, 3]: 0.9 ± 0.1
- Tubular dilatation score, Cortex [1, 3]: 2.0 ± 0.3
- Tubular dilatation score, Inner zone of outer medulla [1, 3]: 1.0 ± 0.2
- Tubular dilatation score, Outer zone of outer medulla [1, 3]: 1.4 ± 0.4
- Tubular necrosis score, Cortex [1, 3]: 0.4 ± 0.2
- Tubular necrosis score, Inner zone of outer medulla [1, 3]: 0.5 ± 0.2
- Tubular necrosis score, Outer zone of outer medulla [1, 3]: 0.4 ± 0.2
- BUN [2, 4]: 44.5 ± 2.19 mg/dL
- sCr [2, 4]: 0.80 ± 0.07 mg/dL
- BUN [2, 5]: 74.2 ± 17.8 mg/dL
- sCr [2, 5]: 0.78 ± 0.18 mg/dL
- BUN [2, 6]: 66.3 ± 9.23 mg/dL
- sCr [2, 6]: 0.81 ± 0.09 mg/dL
- BUN [2, 7]: 55.9 ± 5.20 mg/dL
- sCr [2, 7]: 0.41 ± 0.07 mg/dL
- BUN [2, 8]: 57.0 ± 5.47 mg/dL
- sCr [2, 8]: 0.78 ± 0.08 mg/dL
- BUN [2, 9]: 45.0 ± 6.28 mg/dL
- sCr [2, 9]: 0.65 ± 0.09 mg/dL
- BUN [2, 10]: 45.0 ± 6.28 mg/dL
- sCr [2, 10]: 0.65 ± 0.09 mg/dL
- BUN [2, 11]: 32.1 ± 4.63 mg/dL
- sCr [2, 11]: 0.53 ± 0.03 mg/dL
- BUN [2, 12]: 32.1 ± 4.63 mg/dL
- sCr [2, 12]: 0.53 ± 0.03 mg/dL
